Measurements: patent publication US8030487B2, “2-amino—5-substituted pyrimidine inhibitors” (TargeGen, Inc., priority 2006, dated 2011)

Legend:
[1] = test system: retinal edema induced by retinal ischemia; experiment: Retinal edema (Method #1), induced by retinal ischemia; assay type: in vivo, rat; details: LE rats, 1% solution, topical bid × 5, retinal vein thrombosis; vehicle 5.2
Description: Retinal Edema (Method #1) Retinal edema was induced in rats by retinal ischemia. LE rats were injected i.v. with the photosensitizing dye Rose Bengal, followed by laser stimulation of a single retinal vein (in the right eye only) so as to induce thrombosis and thus retinal ischemia. Animals were dosed topically with either test compound or vehicle (10 μL eyedrops twice per day bilaterally) for a total of 5 dosings. Retinal edema was then measured by injecting animals i.p. with sodium fluorescein followed 45 later by ocular fluorophotometry to detect fluorescein leakage into the retina and vitreous chamber. An Edema Index (EI) was calculated according to the following formula: EI=(Fod−Fos)/Fos, where Fod=AUC value for fluorescence in the right eye, and Fos=AUC value for fluorescence in the left (treated but not thrombosed) eye.

[2] = test system: retinal edema induced by intravitreal injection of VEGF; experiment: Retinal edema (Method #2), induced by intravitreal VEGF; assay type: in vivo, rat; details: LE rats, 1% solution topical, vehicle 0.363
Description: Retinal Edema (Method #2) Retinal edema was induced in rats by intravitreal injection of vascular endothelial growth factor (VEGF). LE rats were dosed topically (bilaterally) with either test compound or vehicle (10 μL eyedrops), followed by intravitreal injections of either saline (left eye) or VEGF (right eye). Five hours later, animals were again dosed topically with test compound or vehicle, and then injected i.p. with sodium fluorescein followed 45 later by ocular fluorophotometry to detect fluorescein leakage into the retina and vitreous chamber. EI was calculated according to the following formula: EI=(Fod−Fos)/Fos, where Fod=AUC value for fluorescence in the right eye, and Fos=AUC value for fluorescence in the left (saline injected) eye.

[3] = test system: retinal neovascularization; experiment: Retinal neovascularization, normoxia-hyperoxia-normoxia mouse pups; assay type: in vivo; details: C57BL/6 mouse pups
Description: Retinal Neovascularization Retinal neovascularization was induced in mouse pups by cyclic exposure to normoxia-hyperoxia-normoxia. C57BL/6 mouse pups were exposed to hyperoxia (75% O2 environment) for 5 days starting at from postnatal day 7, then returned to a normoxic environment. Dosing was also initiated at this time (bilateral topical application of test compound or vehicle as a 10 μL eyedrops twice per day). After 5 days of dosing, retinal wholemounts were prepared and stained with a fluorescently labeled lectin that specifically stains murine endothelium. Digital images were captured by fluorescence microscopy and used to quantify total vascular area.

[4] = test system: choroidal neovascularization; experiment: Choroidal neovascularization induced by laser injury; assay type: in vivo, mouse; details: C57BL/6 mice, 1% solution topical twice per day, 14 days; vehicle 16,192
Description: Choroidal Neovascularization Choroidal neovasculariztion was induced in mice by laser injury. Laser photocoagulation was performed on the choroids of C57BL/6 mice, after which mice were dosed topically with test compound or vehicle for a total of 14 days (10 μL applied per eye twice per day). At the end of the 2 week dosing period, mice were perfused with fluorescein-labeled dextran (2×10^6 average molecular weight), eyes were removed and fixed in formalin, and choroidal flatmounts prepared. Laser injury sites were photographed by fluorescence microscopy and digital images were used to quantify the area of choroidal neovascularization.

[5] = molecular target: T1, Yes (Homo sapiens, UniProt P07947); experiment: Yes kinase inhibition (KinaseGlo); assay type: biochemical
T1 construct: purchased Panvera/Invitrogen
T1 sequence (P07947 whole entry): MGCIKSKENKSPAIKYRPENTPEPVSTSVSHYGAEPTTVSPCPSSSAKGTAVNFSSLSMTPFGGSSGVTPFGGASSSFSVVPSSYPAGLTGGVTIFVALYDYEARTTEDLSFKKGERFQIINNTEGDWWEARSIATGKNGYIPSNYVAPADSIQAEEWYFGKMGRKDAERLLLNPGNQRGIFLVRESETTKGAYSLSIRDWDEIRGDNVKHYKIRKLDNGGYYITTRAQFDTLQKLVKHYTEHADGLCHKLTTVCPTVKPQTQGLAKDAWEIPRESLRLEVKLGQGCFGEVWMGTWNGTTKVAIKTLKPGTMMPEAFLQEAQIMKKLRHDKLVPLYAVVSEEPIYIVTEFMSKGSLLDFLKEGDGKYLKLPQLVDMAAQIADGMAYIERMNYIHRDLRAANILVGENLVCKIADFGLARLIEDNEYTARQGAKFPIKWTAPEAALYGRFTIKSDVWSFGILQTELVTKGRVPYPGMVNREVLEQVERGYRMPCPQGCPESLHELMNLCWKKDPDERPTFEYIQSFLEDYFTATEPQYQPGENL
Description: (§1) The ability of compounds of the present invention to inhibit the activity of various groups of kinases was tested. Kinases that were tested are described below. All kinase reactions were conducted in 96-well plates with a final reaction volume of 50 μl.
(§2) Recombinant human c-Src or Yes, or Fyn, or Lck (28 ng/well, Panvera/Invitrogen, Madison Wis.), ATP (3 μM), a tyrosine kinase substrate (PTK2, 250 μM, Promega Corp., Madison Wis.), and test agents (at concentrations ranging from about 1 nM/l to about 100 μM/l), in the presence of Src kinase reaction buffer (Upstate USA, Lake Placid N.Y.). After reacting for about 90 minutes at room temperature, residual ATP was determined using a luciferase-based assay (KinaseGlo, Promega Corp.) as a measure of kinase activity. Data from four wells were then averaged and used to determine IC50 values for the test compounds (Prism software package, GraphPad Software, San Diego Calif.).

[6] = molecular target: T2, Lck (Homo sapiens, UniProt P06239); experiment: Lck kinase inhibition (KinaseGlo); assay type: biochemical
T2 construct: purchased Panvera/Invitrogen
T2 sequence (P06239 whole entry): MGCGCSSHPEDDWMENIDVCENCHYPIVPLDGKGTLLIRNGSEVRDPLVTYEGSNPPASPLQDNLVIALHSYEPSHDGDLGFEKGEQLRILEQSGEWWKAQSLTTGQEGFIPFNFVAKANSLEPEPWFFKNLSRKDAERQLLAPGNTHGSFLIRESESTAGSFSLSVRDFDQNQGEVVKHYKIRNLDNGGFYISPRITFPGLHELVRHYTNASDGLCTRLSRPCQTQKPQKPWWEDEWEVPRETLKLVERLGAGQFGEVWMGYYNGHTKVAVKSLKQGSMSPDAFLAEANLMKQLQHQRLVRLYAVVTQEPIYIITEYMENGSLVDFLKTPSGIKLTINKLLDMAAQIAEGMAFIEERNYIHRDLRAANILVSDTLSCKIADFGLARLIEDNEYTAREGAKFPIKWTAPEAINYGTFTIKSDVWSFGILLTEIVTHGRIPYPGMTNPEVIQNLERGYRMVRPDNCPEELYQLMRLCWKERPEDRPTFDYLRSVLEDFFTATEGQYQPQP
Description: as §1, §2

[7] = molecular target: Abl (Homo sapiens, UniProt P00519); experiment: Abl kinase inhibition; assay type: biochemical
Sequence of Abl (P00519 whole entry, species assumed): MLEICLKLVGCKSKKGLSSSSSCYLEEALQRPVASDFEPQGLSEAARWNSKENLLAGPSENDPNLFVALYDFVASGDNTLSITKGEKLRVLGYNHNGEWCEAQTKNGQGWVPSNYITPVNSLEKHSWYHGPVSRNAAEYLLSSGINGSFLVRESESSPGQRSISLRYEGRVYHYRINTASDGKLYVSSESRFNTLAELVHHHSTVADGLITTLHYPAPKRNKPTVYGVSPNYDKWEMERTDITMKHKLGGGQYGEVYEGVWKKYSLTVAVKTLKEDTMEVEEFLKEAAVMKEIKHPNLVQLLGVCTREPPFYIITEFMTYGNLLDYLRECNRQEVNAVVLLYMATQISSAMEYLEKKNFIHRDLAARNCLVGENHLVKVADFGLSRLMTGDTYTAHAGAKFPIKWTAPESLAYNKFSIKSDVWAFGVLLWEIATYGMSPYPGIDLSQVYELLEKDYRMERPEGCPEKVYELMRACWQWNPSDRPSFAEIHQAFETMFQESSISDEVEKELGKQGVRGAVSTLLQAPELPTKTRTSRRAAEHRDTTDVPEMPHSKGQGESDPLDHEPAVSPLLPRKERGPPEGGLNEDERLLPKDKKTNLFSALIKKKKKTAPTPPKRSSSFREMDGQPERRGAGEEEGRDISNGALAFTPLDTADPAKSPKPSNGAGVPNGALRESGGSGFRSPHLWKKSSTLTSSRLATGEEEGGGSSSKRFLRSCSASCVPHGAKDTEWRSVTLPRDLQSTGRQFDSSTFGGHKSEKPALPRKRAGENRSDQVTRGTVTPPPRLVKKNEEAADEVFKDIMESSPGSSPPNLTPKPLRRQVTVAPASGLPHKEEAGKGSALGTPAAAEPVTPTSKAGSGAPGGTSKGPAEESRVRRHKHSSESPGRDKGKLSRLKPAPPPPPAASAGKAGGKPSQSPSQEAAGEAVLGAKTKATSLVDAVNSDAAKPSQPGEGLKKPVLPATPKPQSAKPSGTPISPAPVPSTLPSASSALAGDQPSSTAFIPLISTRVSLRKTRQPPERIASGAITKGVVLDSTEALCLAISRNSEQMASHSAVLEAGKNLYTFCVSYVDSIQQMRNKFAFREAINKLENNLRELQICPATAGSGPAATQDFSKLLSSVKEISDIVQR
Description: as §1
Src Family of Kinases, abl, and Ret
as §2

[8] = molecular target: T3, EGFR (Homo sapiens, UniProt P00533); experiment: EGFR kinase inhibition (residual ATP); assay type: biochemical; details: 2.5 uM ATP, 60 min 37° C.
T3 construct: purchased Panvera/Invitrogen
T3 sequence (P00533 25-1210, species assumed): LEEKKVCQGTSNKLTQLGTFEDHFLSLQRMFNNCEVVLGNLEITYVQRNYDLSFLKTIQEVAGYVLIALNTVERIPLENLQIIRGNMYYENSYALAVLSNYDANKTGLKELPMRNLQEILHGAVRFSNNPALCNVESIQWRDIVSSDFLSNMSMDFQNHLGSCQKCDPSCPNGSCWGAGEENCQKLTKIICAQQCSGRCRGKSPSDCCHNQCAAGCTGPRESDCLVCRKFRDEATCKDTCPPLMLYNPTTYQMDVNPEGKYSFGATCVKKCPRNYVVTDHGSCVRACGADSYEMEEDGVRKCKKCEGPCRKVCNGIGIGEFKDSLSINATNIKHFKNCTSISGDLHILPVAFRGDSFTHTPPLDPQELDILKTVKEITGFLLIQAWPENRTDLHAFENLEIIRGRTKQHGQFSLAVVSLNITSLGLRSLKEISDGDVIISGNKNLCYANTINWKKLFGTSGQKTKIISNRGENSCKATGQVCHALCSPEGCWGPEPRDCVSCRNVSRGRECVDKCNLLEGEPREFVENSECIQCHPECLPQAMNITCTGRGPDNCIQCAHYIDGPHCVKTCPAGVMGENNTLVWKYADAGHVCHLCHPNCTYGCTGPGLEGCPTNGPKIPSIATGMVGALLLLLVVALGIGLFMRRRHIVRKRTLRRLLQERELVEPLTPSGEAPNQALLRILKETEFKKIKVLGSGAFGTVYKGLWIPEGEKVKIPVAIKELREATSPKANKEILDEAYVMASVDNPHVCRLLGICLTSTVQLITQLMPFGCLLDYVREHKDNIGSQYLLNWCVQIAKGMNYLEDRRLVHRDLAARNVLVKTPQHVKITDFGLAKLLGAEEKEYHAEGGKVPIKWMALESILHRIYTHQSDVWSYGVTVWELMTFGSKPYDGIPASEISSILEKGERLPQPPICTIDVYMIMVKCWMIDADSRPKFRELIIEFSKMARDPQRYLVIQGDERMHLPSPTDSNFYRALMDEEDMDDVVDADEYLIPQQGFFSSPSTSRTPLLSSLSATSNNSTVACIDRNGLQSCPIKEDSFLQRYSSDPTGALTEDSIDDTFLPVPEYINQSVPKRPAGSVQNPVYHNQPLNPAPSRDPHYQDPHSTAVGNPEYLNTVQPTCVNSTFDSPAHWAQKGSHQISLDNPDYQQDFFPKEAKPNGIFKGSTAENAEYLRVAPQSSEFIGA
Description: as §1
EGFR and VEGFR2 kinase assays were similarly performed. EGFR (76 ng/well, Panvera/Invitrogen) was combined with 12.5 mg/ml poly(glu4tyr) (Sigma) and 2.5 uM ATP. VEGFR2 (14.1 U/well, Cell Signaling/ProQinase) was used with 0.3 mg/ml poly(glu4tyr) and 1.5 uM ATP. Both were incubated for 60 minutes at 37° C., and the residual ATP was measured via luminescence, per the procedure described above.

[9] = test system: human retinal micro vascular endothelial cells (hRMVEC); experiment: Cellular data using hRMVEC; assay type: cell-based; details: Endothelial cell

| IC50 [5] | IC50 [6] | IC50 [7] | EC50 [9] | Structure (SMILES) | other results |
| --- | --- | --- | --- | --- | --- |
| – | – | – | – | O=C(Nc1ccc(Cl)c(C(=O)Nc2cnc(Nc3ccc(OCCN4CCCC4)cc3)nc2)c1)c1cccc(C(F)(F)F)c1 [Compound XL, 2-Chloro-N-{2-[4-(2-Pyrrolidin-1-yl-ethoxy)-Phenylamino]-Pyrimidin-5-yl}-5-(3-Trifluoromethyl-Benzoylamino)-Benzamide] | Edema Index [1]: 2.3; EI [2]: 0.110; reduction in retinal vascularization compared to vehicle ([3]; 0.1% solution, twice per day, 5 days, P=0.009): 29%; % Reduction vs. Vehicle (retinal vascularization) ([3]; 1% of compound XL (table), topical bid × 5): 29%; Area (mm^2), total retinal vascular area ([3]; 1% of compound XL (table), topical bid × 5, vehicle 8.269): 6.429 mm^2; Area (μm^2) of choroidal neovascularization [4]: 9,388 μm^2 |
| 0.52 nM | 1.7 nM | 1.1 nM | – | O=C(Nc1ccc(Cl)c(C(=O)Nc2cnc(Nc3cccc(OCCN4CCCC4)c3)nc2)c1)c1cccc(C(F)(F)F)c1 [drawing 225] | – |
| 0.93 nM | 3.8 nM | – | – | Cc1ccc(NC(=O)c2cccc(C(F)(F)F)c2)cc1C(=O)Nc1cnc(Nc2cccc(OCCN3CCCC3)c2)nc1 [drawing 226] | – |
| – | – | 154 nM | – | O=C(Nc1cnc(Nc2cccc(OCCN3CCCC3)c2)nc1)c1cc(NC(=O)C(F)(F)F)ccc1Cl [drawing 227] | – |
| 0.9 nM | 4.5 nM | 0.2 nM | – | O=C(Nc1ccc(Cl)c(C(=O)Nc2cnc(Nc3ccc(S(=O)(=O)C4CCNCC4)cc3)nc2)c1)c1cccc(C(F)(F)F)c1 [drawing 228] | – |
| 1.3 nM | 5.1 nM | 5.5 nM | – | Cc1ccc(NC(=O)c2cccc(C(F)(F)F)c2)cc1C(=O)Nc1cnc(Nc2ccc(OCCN3CCCC3)cc2)nc1 [drawing 229] | – |
| 0.46 nM | 2.2 nM | 1.8 nM | – | O=C(Nc1ccc(Cl)c(C(=O)Nc2cnc(Nc3ccc(OCCN4CCCC4)cc3)nc2)c1)c1cccc(C(F)(F)F)c1 [drawing 230] | IC50 [8]: 98 nM |
| – | – | 3.8 nM | – | O=C(Nc1ccc(Cl)c(C(=O)Nc2cnc(Nc3ccc(CCCN4CCCC4)cc3)nc2)c1)c1cccc(C(F)(F)F)c1 [drawing 231] | – |
| – | – | 126 nM | – | Cc1ccc(NC(=O)C(F)(F)F)cc1C(=O)Nc1cnc(Nc2cccc(OCCN3CCCC3)c2)nc1 [drawing 232] | – |
| – | – | – | – | O=C(Nc1ccc(Cl)c(C(=O)Nc2cnc(Nc3ccc(CCCN4CCCC4)cc3)nc2)c1)c1cccc(C(F)(F)F)c1 [drawing 233] | IC50 [8]: 124 nM |
| 4.2 nM | 32.2 nM | – | – | O=C(Nc1ccc(Cl)c(C(=O)Nc2cnc(Nc3ccccc3)nc2)c1)c1cccc(C(F)(F)F)c1 [drawing 234] | – |
| 22.2 nM | 309 nM | – | – | Cc1ccc(Nc2nccc3ccccc23)cc1C(=O)Nc1cnc(Nc2cccc(OCCN3CCCC3)c2)nc1 [drawing 236] | – |
| 2.5 nM | 22.4 nM | – | – | O=C(Nc1cccc(C(F)(F)F)c1)Nc1ccc(Cl)c(C(=O)Nc2cnc(Nc3ccc(OCCN4CCCC4)cc3)nc2)c1 [drawing 237] | IC50 [8]: 558 nM |
| – | – | – | 69 nM | O=C(Nc1ccc(Cl)c(C(=O)Nc2cnc(Nc3cccc(OCCN4CCCC4)c3)nc2)c1)c1cccc(C(F)(F)F)c1 [drawing 238] | – |
| – | – | – | 1150 nM | O=C(Nc1ccc(Cl)c(C(=O)Nc2cnc(Nc3ccc(S(=O)(=O)C4CCNCC4)cc3)nc2)c1)c1cccc(C(F)(F)F)c1 [drawing 239] | – |
| – | – | – | 199 nM | Cc1ccc(NC(=O)c2cccc(C(F)(F)F)c2)cc1C(=O)Nc1cnc(Nc2ccc(OCCN3CCCC3)cc2)nc1 [drawing 240] | – |
| – | – | – | 30 nM | O=C(Nc1ccc(Cl)c(C(=O)Nc2cnc(Nc3ccc(OCCN4CCCC4)cc3)nc2)c1)c1cccc(C(F)(F)F)c1 [drawing 241] | – |
| – | – | – | 41 nM | O=C(Nc1ccc(Cl)c(C(=O)Nc2cnc(Nc3ccc(CCCN4CCCC4)cc3)nc2)c1)c1cccc(C(F)(F)F)c1 [drawing 242] | – |
| – | – | – | 68 nM | O=C(Nc1ccc(Cl)c(C(=O)Nc2cnc(Nc3cccnc3)nc2)c1)c1cccc(C(F)(F)F)c1 [drawing 243] | – |
